Laboratory results from patent USRE49735E1 (BRISTOL-MYERS SQUIBB COMPANY, priority 2010, dated 2023).
Several values for one entry are separate records, joined by “and”; a condition that tells them apart may be missing. Equal entries are not always repeated. Blank lines part the entries; values can stand above or below the compound they belong to.

Biological target: human mGluR5A (Homo sapiens, UniProt P41594)
Assay: mGluR5 FLIPR Assay
Assay type: cell-based
Settings: positive modulator activity; HEK293 (ZF) cells with human mGluR5A and rat GLAST; Ca++ response to ~EC10 glutamate

human mGluR5A, sequence (P41594 21-1180 isoform P41594-2): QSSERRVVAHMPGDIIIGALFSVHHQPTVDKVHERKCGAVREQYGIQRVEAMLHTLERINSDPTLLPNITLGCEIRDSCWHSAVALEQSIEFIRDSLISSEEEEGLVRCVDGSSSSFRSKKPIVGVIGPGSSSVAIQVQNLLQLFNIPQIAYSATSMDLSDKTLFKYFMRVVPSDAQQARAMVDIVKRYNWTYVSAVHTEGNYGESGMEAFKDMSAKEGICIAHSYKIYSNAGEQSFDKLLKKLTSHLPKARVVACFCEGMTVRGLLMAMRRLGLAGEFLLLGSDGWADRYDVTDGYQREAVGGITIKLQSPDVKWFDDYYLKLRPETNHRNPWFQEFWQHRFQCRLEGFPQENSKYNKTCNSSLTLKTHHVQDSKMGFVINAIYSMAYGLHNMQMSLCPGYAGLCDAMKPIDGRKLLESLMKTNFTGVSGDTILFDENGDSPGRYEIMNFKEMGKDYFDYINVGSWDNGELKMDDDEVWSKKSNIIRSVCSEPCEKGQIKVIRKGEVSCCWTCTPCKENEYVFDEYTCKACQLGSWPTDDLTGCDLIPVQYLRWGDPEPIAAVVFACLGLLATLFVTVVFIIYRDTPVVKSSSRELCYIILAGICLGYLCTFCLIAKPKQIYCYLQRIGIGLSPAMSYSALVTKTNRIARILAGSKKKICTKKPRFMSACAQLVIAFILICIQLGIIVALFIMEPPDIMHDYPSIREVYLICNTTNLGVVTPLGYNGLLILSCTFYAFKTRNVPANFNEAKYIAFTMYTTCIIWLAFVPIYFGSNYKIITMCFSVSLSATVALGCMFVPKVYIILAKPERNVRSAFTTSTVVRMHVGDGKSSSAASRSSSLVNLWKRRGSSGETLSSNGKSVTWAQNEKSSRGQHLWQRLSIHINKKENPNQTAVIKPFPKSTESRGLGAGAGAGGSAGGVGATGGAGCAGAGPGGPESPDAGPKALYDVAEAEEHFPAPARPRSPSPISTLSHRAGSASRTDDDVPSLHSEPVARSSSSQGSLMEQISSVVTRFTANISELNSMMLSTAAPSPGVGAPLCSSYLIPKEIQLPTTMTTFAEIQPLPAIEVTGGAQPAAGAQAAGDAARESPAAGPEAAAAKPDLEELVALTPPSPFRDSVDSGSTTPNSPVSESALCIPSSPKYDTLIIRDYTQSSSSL

Structure (SMILES): COc1cccc([C@H]2OC(=O)N[C@@H]2c2cccc(C#Cc3ncccn3)c2)c1 [Example 64, (4R,5R)-5-(3-Methoxyphenyl)-4-(3-(pyrimidin-2-ylethynyl)phenyl)oxazolidin-2-one]
EC50: > 30000 nM

Structure (SMILES): O=C1N[C@H](c2ccnc(C#Cc3cccnc3)c2)[C@@H](c2ccccc2)O1 [Example 23, (4R,5R)-5-Phenyl-4-(2-(pyridin-3-ylethynyl)pyridin-4-yl)oxazolidin-2-one]
EC50: < 100 nM

Structure (SMILES): O=C1N[C@@H](c2cccc(C#Cc3cccnc3)c2)[C@@H](c2cnccn2)O1 [Example 250]
EC50: > 1000 nM

Structure (SMILES): COc1cccc([C@H]2OC(=O)N[C@@H]2c2cccc(C#Cc3ccccc3F)c2)c1 [Example 121, (4R,5R)-4-(3-((2-fluorophenyl)ethynyl)phenyl)-5-(3-methoxyphenyl)oxazolidin-2-one]
EC50: < 100 nM

Structure (SMILES): COc1cccc([C@H]2OC(=O)N[C@@H]2c2cccc(C#Cc3cccc(F)c3)c2)c1 [Example 133, (4R,5R)-4-(3-((3-fluorophenyl)ethynyl)phenyl)-5-(3-methoxyphenyl)oxazolidin-2-one]
EC50: < 100 nM

Structure (SMILES): O=C1N[C@H](c2cc(C#Cc3cncc(F)c3)cnc2F)[C@@H](c2ccc(F)cc2)O1 [Example 143, (4R,5R)-4-(2-Fluoro-5-((5-fluoropyridin-3-yl)ethynyl)pyridin-3-yl)-5-(4-fluorophenyl)oxazolidin-2-one]
EC50: < 100 nM

Structure (SMILES): C[C@]1(c2cncc(C#Cc3ncccc3F)c2)NC(=O)O[C@@H]1c1ccccc1 [Example 229]
EC50: < 100 nM

Structure (SMILES): O=C1N[C@H](c2cncc(C#Cc3ccccn3)c2)[C@@H](c2ccc(F)c(F)c2)O1 [Example 178]
EC50: 100 to 1000 nM and 117 nM

Structure (SMILES): Cc1cccc([C@@H]2OC(=O)N[C@@H]2c2cccc(C#Cc3ccccc3)c2)c1 (racemic) [Example 98, cis-4-(3-(phenylethynyl)phenyl)-5-m-tolyloxazolidin-2-one]
EC50: > 1000 nM

Structure (SMILES): COc1cccc([C@H]2OC(=O)N[C@H]2c2cccc(C#Cc3ccccc3)c2)c1 (single isomer, unassigned) [Example 4]
EC50: > 30000 nM

Structure (SMILES): COc1cccc(C#Cc2cccc([C@H]3NC(=O)O[C@@H]3c3cccc(OC)c3)c2)c1 [Example 59, (4R,5R)-5-(3-Methoxyphenyl)-4-(3-((3-methoxyphenyl)ethynyl)phenyl)oxazolidin-2-one]
EC50: < 100 nM

Structure (SMILES): COc1cccc([C@H]2OC(=O)N[C@@H]2c2cccc(C#Cc3cccnc3C#N)c2)c1 [Example 53, 3-((3-((4R,5R)-5-(3-Methoxyphenyl)-2-oxooxazolidin-4-yl)phenyl)ethynyl)picolinonitrile]
EC50: > 1000 nM

Structure (SMILES): COc1cccc([C@H]2OC(=O)N[C@@H]2c2cncc(C#Cc3ccccn3)c2)c1 (single isomer, unassigned) [Example 29]
EC50: > 1000 nM

Structure (SMILES): COc1cccc([C@H]2OC(=O)N[C@@H]2c2cccc(C#Cc3cncnc3)c2)c1 [Example 65, (4R,5R)-5-(3-Methoxyphenyl)-4-(3-(pyrimidin-5-ylethynyl)phenyl)oxazolidin-2-one]
EC50: 100 to 1000 nM and 139 nM

Structure (SMILES): Cc1ccc([C@@H]2OC(=O)N[C@H]2c2cccc(C#Cc3ccccc3)c2)cc1 [Example 108]
EC50: > 1000 nM

Structure (SMILES): COc1cccc([C@H]2OC(=O)N[C@@H]2c2cccc(C#Cc3ccccc3)c2)c1 [Example 1, (+)-(4R,5R)-5-(3-Methoxyphenyl)-4-(3-(phenylethynyl)phenyl)oxazolidin-2-one]
EC50: < 100 nM and 39 nM

Structure (SMILES): COc1cccc([C@H]2OC(=O)N[C@@H]2c2cccc(C#Cc3ncc[nH]3)c2)c1 [Example 62, (4R,5R)-4-(3-((1H-imidazol-2-yl)ethnyl)phenyl)-5-(3-methoxyphenyl)oxazolidin-2-one]
EC50: > 1000 nM

Structure (SMILES): COc1cccc([C@H]2OC(=O)N[C@@H]2c2cccc(C#Cc3cc4ccccc4cn3)c2)c1 [Example 67, (4R,5R)-4-(3-(Isoquinolin-3-ylethynyl)phenyl)-5-(3-methoxyphenyl)oxazolidin-2-one]
EC50: > 1000 nM

Structure (SMILES): C[C@@]1(c2cccc(F)c2)OC(=O)N[C@H]1c1cncc(C#Cc2ccccc2)c1 [Example 221]
EC50: > 1000 nM

Structure (SMILES): C[C@@]1(c2cncc(C#Cc3ccccc3)c2)NC(=O)O[C@H]1c1ccccc1 (single isomer, unassigned) [Example 137]
EC50: 100 to 1000 nM

Structure (SMILES): O=C1N[C@@H](c2cc(C#Cc3ccccc3)ccn2)[C@H](c2ccccc2)O1 (single isomer, unassigned) [Example 19]
EC50: > 1000 nM

Structure (SMILES): O=C1N[C@H](c2cccc(C#Cc3ccccc3)c2)[C@H](c2cnccn2)O1 [Example 247]
EC50: > 1000 nM

Structure (SMILES): O=C1N[C@H](c2cccc(C#Cc3ccccc3)c2)C(c2cccs2)O1 (single isomer, unassigned) [Example 104]
EC50: < 100 nM

Structure (SMILES): Cc1ccc([C@@H]2OC(=O)N[C@H]2c2cccc(C#Cc3ccccc3)c2)cc1C (racemic) [Example 100, Trans-5-(3,4-dimethylphenyl)-4-(3-(phenylethynyl)phenyl)oxazolidin-2-one]
EC50: 100 to 1000 nM

Structure (SMILES): COc1cccc([C@H]2OC(=O)N[C@@H]2c2cccc(C#Cc3ccc(C(F)(F)F)cc3)c2)c1 [Example 119, (4R,5R)-5-(3-methoxyphenyl)-4-(3-((4-(trifluoromethyl)phenyl)ethynyl)phenyl)oxazolidin-2-one]
EC50: > 1000 nM

Structure (SMILES): COc1cccc([C@H]2OC(=O)N[C@@H]2c2cccc(C#Cc3cnccc3C)c2)c1 [Example 88, (4R,5R)-5-(3-Methoxyphenyl)-4-(3-((4-methylpyridin-3-yl)ethynyl)phenyl)oxazolidin-2-one]
EC50: > 1000 nM

Structure (SMILES): O=C1N[C@H](c2cc(C#Cc3ccnc(F)c3)cnc2F)[C@@H](c2cccc(F)c2)O1 [Example 141, (4R,5R)-4-(2-Fluoro-5-((2-fluoropyridin-4-yl)ethynyl)pyridin-3-yl)-5-(3-fluorophenyl)oxazolidin-2-one]
EC50: < 100 nM

Structure (SMILES): COc1cccc([C@@H]2OC(=O)N[C@H]2c2cccc(C#Cc3cccc(C(F)(F)F)c3)c2)c1 [Example 130, (4S,5S)-5-(3-methoxyphenyl)-4-(3-((3-(trifluoromethyl)phenyl)ethynyl)phenyl)oxazolidin-2-one]
EC50: > 1000 nM

Structure (SMILES): O=C1N[C@@H](c2cccc(C#Cc3cccnc3)c2)[C@H](c2cnccn2)O1 [Example 248]
EC50: > 1000 nM

Structure (SMILES): O=C1N[C@H](c2cccc(C#Cc3ccccc3)c2)[C@@H](c2ccc(F)cc2)O1 (single isomer, unassigned) [Example 114]
EC50: < 100 nM

Structure (SMILES): N#Cc1cccc(C#Cc2cncc([C@@H]3NC(=O)O[C@H]3c3cc(F)cc(F)c3)c2)c1 [Example 190]
EC50: > 1000 nM

Structure (SMILES): C[C@@]1(c2ccc(F)cc2)OC(=O)N[C@H]1c1cncc(C#Cc2ccccc2)c1 [Example 204]
EC50: < 100 nM

Second part, the compound after the results:

EC50: < 100 nM
Structure (SMILES): O=C1N[C@H](c2cncc(C#Cc3ccccc3Cl)c2)[C@@H](c2cccc(F)c2)O1 [Example 399, (4R,5R)-4-(5-((2-chlorophenyl)ethynyl)pyridin-3-yl)-5-(3-fluorophenyl)oxazolidin-2-one]

EC50: < 100 nM and 1.9 nM
Structure (SMILES): O=C1N[C@H](c2ccnc(C#Cc3ccccc3)c2)[C@@H](c2cccc(F)c2)O1 [Example 259]

EC50: < 100 nM
Structure (SMILES): O=C1N[C@H](c2cncc(C#Cc3ccc(F)cc3)c2)[C@@H](c2cccc(F)c2F)O1 [Example 286]

EC50: < 100 nM
Structure (SMILES): O=C1N[C@H](c2cccc(C#Cc3cccc(F)c3)n2)[C@@H](c2ccc(F)cc2F)O1 (single isomer, unassigned) [Example 311]

EC50: > 3000 nM
Structure (SMILES): COc1ccccc1[C@H]1OC(=O)N[C@@H]1c1cncc(C#Cc2ccccc2)c1 (single isomer, unassigned) [Example 334]

EC50: < 100 nM
Structure (SMILES): O=C1N[C@H](c2cc(C#Cc3ccccc3F)ccn2)[C@@H](c2ccc(F)cc2)O1 (single isomer, unassigned) [Example 353]

EC50: > 1000 nM
Structure (SMILES): O=C1N[C@@H](c2cncc(C#Cc3ccccc3)c2)[C@H](c2ncco2)O1 [Example 338, (4S,5R)-5-(oxazol-2-yl)-4-(5-(phenylethynyl)pyridin-3-yl)oxazolidin-2-one]

EC50: 100 to 1000 nM
Structure (SMILES): O=C1N[C@H](c2cncc(C#Cc3ccc(Cl)cc3)c2)[C@@H](c2cc(F)ccc2F)O1 [Example 388, (4R,5R)-4-(5-((4-chlorophenyl)ethynyl)pyridin-3-y1)-5-(2,5-difluorophenyl)oxazolidin-2-one]

EC50: > 1000 nM
Structure (SMILES): O=C1N[C@@H](c2cncc(C#Cc3ccccc3)c2)[C@@H](c2ccnnc2)O1 (single isomer, unassigned) [Example 323]

EC50: > 1000 nM
Structure (SMILES): O=C1N[C@H](c2cncc(C#Cc3ccccc3)c2)[C@H](c2cc(Cl)ccc2Cl)O1 (single isomer, unassigned) [Example 327]

EC50: 100 to 1000 nM
Structure (SMILES): C[C@@]1(c2cc(F)ccc2F)OC(=O)N[C@H]1c1cncc(C#Cc2ccccc2)c1 [Example 288]

EC50: < 100 nM
Structure (SMILES): O=C1N[C@H](c2cncc(C#Cc3ccccc3)c2)[C@H](c2ccncn2)O1 (single isomer, unassigned) [Example 320]

EC50: < 100 nM
Structure (SMILES): C[C@]1(c2cncc(C#Cc3ccccc3)c2)NC(=O)O[C@H]1c1cc(F)ccc1F (racemic) [Example 405, (+/−)-5-(2,5-Difluorophenyl)-4-methyl-4-(5-(phenylethynyl)pyridin-3-yl)oxazolidin-2-one]

EC50: > 1000 nM
Structure (SMILES): O=C1N[C@H](c2ccc(C#Cc3ccccc3)cn2)[C@@H](c2cccc(F)c2)O1 [Example 410, (4R,5R)-5-(3-fluorophenyl)-4-(5-(phenylethynyl)pyridin-2-yl)oxazolidin-2-one]

EC50: 100 to 1000 nM
Structure (SMILES): COC(=O)c1cccc(C#Cc2cccc([C@H]3NC(=O)O[C@@H]3c3cccc(OC)c3)c2)c1 [Example 267]

EC50: > 1000 nM
Structure (SMILES): O=C1N[C@H](c2cccc(C#Cc3ccccc3)n2)[C@@H](c2ccccc2F)O1 (single isomer, unassigned) [Example 307]

EC50: < 100 nM
Structure (SMILES): O=C1N[C@H](c2cc(C#Cc3ccccc3)ncc2F)[C@@H](c2cc(F)ccc2F)O1 [Example 301, (4R,5R)-5-(2,5-Difluorophenyl)-4-(5-fluoro-2-(phenylethynyl)pyridin-4-yl)oxazolidin-2-one]

EC50: 100 to 1000 nM and 164 nM
Structure (SMILES): N#Cc1cncc(C#Cc2cncc([C@H]3NC(=O)O[C@@H]3c3cccc(F)c3)c2)c1 [Example 257]

EC50: > 1000 nM
Structure (SMILES): O=C1N[C@@H](c2cncc(C#Cc3ccccc3)c2)[C@H](c2ccncn2)O1 (single isomer, unassigned) [Example 317]

EC50: 100 to 1000 nM
Structure (SMILES): C[C@]1(c2cc(F)ccc2F)OC(=O)N[C@H]1c1cncc(C#Cc2ccccc2)c1 [Example 291]
